Reference: US20130189714A1, “METHOD FOR THE DETECTION AND/OR QUANTIFICATION OF THE INTERACTION OF PLATELETS WITH INTERACTION PARTNERS” (SANOFI, priority 2010, published 2013)
Residues, ends and D or L forms follow the SMILES beside them.

Assays:
[1] = target: T1, interaction of platelets (GPIb) with vWF-A1 domain (Homo sapiens, UniProt P07359); experiment: platelet adhesion to wells coated with vWF-A1 (calcein-AM labelled platelets, Acumen laser-scanning cytometry); assay type: cell-based
T1 construct: it is advantageous to use whole platelets instead of the isolated GpIb protein; host or cells: human platelets from platelet concentrate
T1 sequence (P07359 17-652): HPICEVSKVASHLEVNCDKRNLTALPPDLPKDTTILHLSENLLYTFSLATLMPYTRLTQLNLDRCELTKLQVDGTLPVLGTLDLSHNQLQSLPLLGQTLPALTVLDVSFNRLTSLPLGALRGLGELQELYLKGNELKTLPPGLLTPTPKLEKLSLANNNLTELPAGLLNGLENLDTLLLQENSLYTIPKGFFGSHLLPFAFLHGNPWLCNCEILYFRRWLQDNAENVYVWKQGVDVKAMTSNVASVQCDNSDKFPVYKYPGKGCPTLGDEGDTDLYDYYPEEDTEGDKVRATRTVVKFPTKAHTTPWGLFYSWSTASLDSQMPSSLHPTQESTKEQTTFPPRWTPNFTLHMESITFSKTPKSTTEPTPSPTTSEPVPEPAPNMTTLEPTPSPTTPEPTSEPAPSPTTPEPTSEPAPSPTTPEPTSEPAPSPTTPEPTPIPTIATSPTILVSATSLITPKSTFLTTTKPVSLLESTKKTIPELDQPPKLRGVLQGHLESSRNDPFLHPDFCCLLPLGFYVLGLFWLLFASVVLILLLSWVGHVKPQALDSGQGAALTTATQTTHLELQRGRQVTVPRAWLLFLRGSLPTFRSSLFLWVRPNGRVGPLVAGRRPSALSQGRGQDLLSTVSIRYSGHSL
T1 sequence (P13224 26-206 partner): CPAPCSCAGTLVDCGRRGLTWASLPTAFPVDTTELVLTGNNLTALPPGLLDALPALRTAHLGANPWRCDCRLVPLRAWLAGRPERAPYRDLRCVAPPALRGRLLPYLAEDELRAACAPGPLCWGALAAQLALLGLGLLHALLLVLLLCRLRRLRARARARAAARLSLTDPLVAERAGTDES
T1 sequence (P14770 17-177 partner): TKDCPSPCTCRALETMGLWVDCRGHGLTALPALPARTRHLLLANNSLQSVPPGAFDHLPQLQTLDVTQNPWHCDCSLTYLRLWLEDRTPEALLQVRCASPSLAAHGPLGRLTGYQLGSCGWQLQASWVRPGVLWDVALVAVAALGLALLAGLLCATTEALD
Procedure: 25 μl of the TBS-vWF-A1-Coating/Blocking-Puffer 1× (containing 15 μg/ml vWF-A1) is added sterile per well using a Multidrop from Labsystems. Plates were incubated and stored minimally overnight up to one week. Storage is at 4 C, sterile and protected against evaporation.
One hour before test substance addition, the wells of the plates were blocked with BSA. Before the wells were washed with 1×TBS-Washbuffer, 60 μl/Well using an ELx405 Microplate Washer (96 wells) from Biotek.
Immediately after (wells should not dry out) the wells were blocked 5% BSA-Fatty acid free 40 μl/Well using a Multidrop from Labsystems. Wells were incubated 1-2 hours until test substances were added.
Sealed plates delivered from test substance management were stored at −20° C. until use. Test substances were dissolved in 100% DMSO at 3 mM. Test substances were diluted in TBS-Adhaesionbuffer 1× till 10 μM final concentration. Diluted test substance were stored at RT and used within hours. HTS occurred in single-point determination.
Surplus of BSA is washed away by washing the wells with 1×TBS-Washbuffer, 60 μl/Well using an ELx405 Microplate Washer (96 wells) from Biotek, followed by the addition of 10 μl test substance solution or high and low control using Cybio robotics. Plates were not allowed to dry out.
LOW-Control: no vWF-A1-Coating, just BSA-treated plates for blocking HIGH-Control: vWF-A1+ Standard (non-toxic GPIb inhibitor) vWF-A1+ and OS-1 10 μM
The total time needed between removing the platelets from the platelet concentrate, as obtained from the German Red Cross and disoensing the platelets into the multiwall plates should be between 45-60 mins.
The bag containing the platelet concentrate, as obtained from the German Red Cross, is removed from the agitation table (see 1.2; cells) and is put in a sterile flow cabinet on an absorbing towel to absorb any spills. The tubing, tube clamps and scissors are sterilized with 70% ethanol in water.
The tubing from the bag with platelet concentrate is clamped and the tubing is cut. The clamp is released and the first ca. 10 ml concentrate that comes out of the bag is discarded. 30 ml concentrate is poured into n 50 ml BD-Falcon tube made of polypropylene.
Next, 2.5 μl PGE-stock (0.5 mg/ml) is added to an empty 12 ml round-bottom tube made of polypropylene (Greiner). To this 5 ml platelet concentrate is added (final concentration of PGE1 is 0.25 μg/ml) and the tube is gently mixed and incubated 5 min at RT. […]

[2] = system: interaction of platelets with collagen 1 (rat tail); experiment: platelet-collagen 1 interaction assay (counter-screen); assay type: cell-based, human; conditions: test substances at 10 μM
Procedure: For this assay essentially the same set up was used as described above for testing the adhesion of platelets onto A1-coated plates.
To coat wells with rat tail collagen1, a stock solution consisting of 200 μg/ml Collagen I (rat tail, SIGMA (C8897)) in 0.01 M acetic acid was prepared. This solution was diluted with 0.01 M acetic acid to 10 μg/ml and 25 μl was added to a 384 well. Plates were incubated overnight at 4 C for binding of collagen1 to the well. One hour before test substance addition, the wells of the plates were blocked with BSA as described above. Also the preparation, labeling and dispension of platelets was as described for vWF-A1. For the platelet adhesion to collagen I, the concentration of MgCl2 was increased to 4 mM and the number of platelets added per well to 50 000 platelets. Using these conditions, the assay was able to detect the interaction of specific inhibitors with good statistical parameters, see FIG. 11.
A set of 6 plates were tested under automated conditions. For all plates a Z′ value above 0.5 was obtained with a S/B of 20 or more.
A training set composed 69 test substances in total was used to validate this assay. […]

For CSCC[C@@H]1NC(=O)[C@H](CCCNC(=N)N)NC(=O)[C@H](CCC(=O)O)NC(=O)[C@H]([C@@H](C)O)NC(=O)[C@@H](N)CSSC[C@@H](C(=O)O)NC(=O)[C@H](CC(C)C)NC(=O)[C@H](CC(N)=O)NC(=O)[C@H](Cc2c[nH]cn2)NC(=O)[C@H](CC(C)C)NC(=O)[C@H](C)NC1=O [OS-1] (HELM PEPTIDE1{C.T.E.R.M.A.L.H.N.L.C}$PEPTIDE1,PEPTIDE1,1:R3-11:R3$$$V2.0; N-terminus and C-terminus assumed), which inhibition at 10 µM ([1]; OS-1 at 10 μM, optimized washer settings, FIG. 6) is on record?
Its inhibition at 10 µM is roughly 90%.

What about the “inhibition by OS-1 during fully automated run of 30 plates” value ([1]; all plates of the run, FIG. 9) of the same compound?
Its value is “high inhibition”.

What about the “inhibition of platelet attachment to vWF-A1 (in words)” value ([1]; optimized washer program, FIG. 6 legend) of the same compound?
The value was “almost complete inhibition”.

What about the “effect of increasing plate storage times on inhibition” value ([1]; prolonged storage at room temperature, FIG. 8) of the same compound?
The value was “almost constant values”.

And the “inhibition of the platelet interaction with collagen” value [2]?
Its value is “did not inhibit”.
